Legend:
[1] = test system: lupus erythematosus model mice (kidney, liver); assay: Triple staining (silver staining) of kidney and liver sections under light microscope, lupus model mice; type: in vivo, BALB/c mice
Description: The back of mice was shaved and acutely exposed to Ultraviolet of 2 h/d*3 d, with a distance of 30 cm. After exposure to UV, 2.5 mg/kg of LPS was administrated once by ip, and after 24 h, the model was successfully established; the mice in the normal control group received normal saline via ip. 24 h after injection of LPS (ip), medicines were given to the model mice by intragastric administration. Chlorogenic acid test groups received high, middle, and low doses of medicines, by intragastric administration at a respective dosage of 10 mg/kg*d, 20 mg/kg*d, and 40 mg/kg*d. The positive control group A received 2 mg/kg*d of artesunate by stomach perfusion, while the positive control group B received 1 mg/kg*d of prednisone by stomach perfusion. Mice in the model and normal control group all received 0.4 ml/mouse normal saline by gavage. After 15 days of administration, animals in each group were taken blood by separating eyeballs on days 14, 21, 28, and after cultured in water bath at 37° C. for 1 h, the blood sample was centrifugated at 2000 r/min for 5 min, to draw serum for use. On day 21, after blood collection, animals were sacrificed by dislocation, followed by collection of liver and kidney, and they were placed in fixative solutions of electron microscope and light microscrope, respectively.
[…] The thickness of slice is 3 μm, and at beginning of staining, wax was routinely deprived to water. After oxidation with 0.5% periodic acid, the slice was macerated in hexamine silver fluid for about 2 h (constant temperature 58° C.), washed with distilled water, dyed with hematoxylin for 1 min. After washing with water, the slice was dyed by dropping the ponceau staining solution for 5 min, differentiated with 70% ethanol, dehydrated with gradient ethanol, cleared with xylene, and sealed with neutral gum.

ANA = assay: Serologic detection of ANA by immunofluorescence on HEp-2 cell sheets, serum of UV + LPS lupus model mice; type: in vivo, BALB/c mice; set-up: key: (+): positive; (−): negative; (++++): intenseintensity; (+++): stronger fluorescent intensity; details: day 14, intragastric
Description: The back of mice was shaved and acutely exposed to Ultraviolet of 2 h/d*3 d, with a distance of 30 cm. After exposure to UV, 2.5 mg/kg of LPS was administrated once by ip, and after 24 h, the model was successfully established; the mice in the normal control group received normal saline via ip. 24 h after injection of LPS (ip), medicines were given to the model mice by intragastric administration. Chlorogenic acid test groups received high, middle, and low doses of medicines, by intragastric administration at a respective dosage of 10 mg/kg*d, 20 mg/kg*d, and 40 mg/kg*d. The positive control group A received 2 mg/kg*d of artesunate by stomach perfusion, while the positive control group B received 1 mg/kg*d of prednisone by stomach perfusion. Mice in the model and normal control group all received 0.4 ml/mouse normal saline by gavage. After 15 days of administration, animals in each group were taken blood by separating eyeballs on days 14, 21, 28, and after cultured in water bath at 37° C. for 1 h, the blood sample was centrifugated at 2000 r/min for 5 min, to draw serum for use. On day 21, after blood collection, animals were sacrificed by dislocation, followed by collection of liver and kidney, and they were placed in fixative solutions of electron microscope and light microscrope, respectively. Serum of mice was diluted at 1:100 with special buffer solution of Shenzhen Hengjia, and then 200 μL of diluted serum was respectively added to the reactive tank with corresponding number, cultured in the incubator at 37° C. for 30 min, and washed with the buffer solution four times, 2 min for each time; 200 μL of diluted biotin goat anti-mouse IgG (1:100) was added, cultured in the incubator at 37° C. for 30 min, and then washed with the buffer solution four times, 2 min for each time; 100 μL of diluted HRP-avidin (1:100) was added, cultured in the incubator at 37° C. for 30 min, and then washed as mentioned-above; reactive solutions A and B were added till appearance of positive bands, then washed with the buffer solution. Compared with the standard bands of ENA polypeptide antibody spectrum in the same kit, if the positive bands appeared at 28/29,13.5 ku polypeptide; 15,16.5,38 kupolypeptide; 52 kupolypeptide and 47/48,45 kupolypeptide, that can be determined as anti-Sm, anti-Rib, anti-ssA, and anti-ssB positive antibody. Serum was diluted with PBS at 1:40, then 20-30 μL of diluted serum was dropped into the scrobiculus of HEp-2 cell sheets, each cell sheet for each group. In the process of dropping serum, it should be noted that the surface of cell sheet can not be touched. After addition of serum, cell sheet was placed in wet box and kept for 30 min at room temperature (25° C.). After 30 min, the cell sheet was taken out, and serum was carefully washed out with PBS, then carefully washed twice with PBS, 5 min for each time; after washing, the remained PBS was removed by special absorbent paper of […] company (In this process, it should be noted that becoming dry of cell substrates will affect the results). 20-30 μL of diluted (PBS, 1:100) FITC goat anti-mouse IgG was added by dropping, and then incubated in wet box at room temperature for 30 min. After washing with PBS, steps were same to above. The remained PBS was removed by absorbent paper, and 1-2 drops of fluorescent mounting media were added to the cell sheet. The cover glass was mounted, observed under Olympus BH-2 universal microscope, and then photographed.

[2] = chlorogenic acid group administrated for 28 days

O=C(/C=C/c1ccc(O)c(O)c1)O[C@@H]1C[C@](O)(C(=O)O)C[C@@H](O)[C@H]1O [Chlorogenic acid, 3-O-caffeoylquinic acid]
staining of hepatic blood vessel basilar membrane [1, 2]: somewhat recovered
thickening degree of renal glomerular and tubular basilar membrane [1, 2]: reduced compared with normal mice
basilar membrane of renal glomerulus and tubule, pathological section ([1]; chlorogenic acid, 21 days): increased thickness compared with normal mice
pathological section of kidney: conditions versus model group ([1]; chlorogenic acid, 21 days, especially high dose group): better than the model group
thickening of renal glomerulus and tubular basement membrane (FIG. 8) ([1]; high dose of chlorogenic acid, 28 days, ×50): thickening degree of renal glomerulus and tubular basement membrane reduces
ANA (ANA; chlorogenic acid high dose): (+++)
ANA (ANA; chlorogenic acid low dose): (++++)
ANA (ANA; chlorogenic acid middle dose): (+++)

Source: patent US10058525B2, “Application of chlorogenic acid in preparing medicines for treating lupus erythematosus” (SICHUAN JIUZHANG BIOLOGICAL SCIENCE AND TECHNOLOGY CO., LTD., priority 2015, dated 2018)
